The results in this text go back to patent US11286273B2, “Rhamnolipid compounds and use thereof” (KOREA INSTITUTE OF OCEAN SCIENCE & TECHNOLOGY, priority 2019, dated 2022).

Holding throughout (format): cell-based
For one assay, the system named is NCI-H23. Put plainly: SRB growth inhibition, NCI-H23 (liver cancer). Conditions: Homo sapiens, NCI-H23, 48 hours. How it is done: (§1) Human cancer cell lines HCT-15 (colon cancer), NUGC-3 (gastric cancer), NCI-H23 (liver cancer), ACHN (kidney cancer), PC-3 (prostate cancer) and MDA-MB-231 (breast cancer) were purchased from American Type Culture Collection (Manassas, Va.).
(§2) Cancer cell lines were cultured in RPMI 1640 supplemented with 10% fetal bovine serum (FBS) in a 5% CO2 humid atmosphere at 37° C. The evaluation of growth inhibitory ability against human cancer cell lines was performed via the Sulforhodamine B (SRB) method. The cells were dispensed into a 96-well plate at a density of 8,000 cells/well, and the next day, cells were treated with compounds 1 to 3 (0.1% DMSO as vehicle control), and treated with a positive control (adriamycin). After incubation for 48 hours, the culture fluid was fixed with 50% trichloroacetic acid ([…]) and stained with 0.4% sulforhodamine B contained in 1% acetic acid. The unbound dye was washed with 1% acetic acid, and the dye bound to the protein was extracted with 10 mM Tris base (pH 10.5) to determine the optical density. The absorbance at 540 nm was determined using a VersaMax microplate reader (Molecular Devices, LLC, Sunnyvale, Calif., USA). The GI50 values were calculated using GraphPad Prism 4.0 software (GraphPad Software, Inc., San Diego, Calif., USA) and shown in Table 3 below.

Another assay concerns PC-3. Put plainly: SRB growth inhibition, PC-3 (prostate cancer). Conditions: Homo sapiens, PC-3, 48 hours. How it is done:
as §1, §2

The next assay relates to HCT-15. Put plainly: SRB growth inhibition, HCT-15 (colon cancer). As to conditions: Homo sapiens, HCT-15, 48 hours. How it is done: as §1, §2
The test system of a further assay is NUGC-3. Nature of the assay: SRB growth inhibition, NUGC-3 (gastric cancer). Conditions: Homo sapiens, NUGC-3, 48 hours. How it is done:
as §1, §2

The next assay deals with MDA-MB-231. Put plainly: SRB growth inhibition, MDA-MB-231 (breast cancer). Conditions: Homo sapiens, MDA-MB-231, 48 hours. How it is done: as §1, §2
The next assay concerns Human cancer cell lines. Put plainly: SRB growth inhibition, panel of six human cancer cell lines (summary). As to conditions: for GI50: Homo sapiens, range over the six cancer cell lines of Table 3. How it is done:
as §1, §2

Another assay has as its system ACHN. Nature of the assay: SRB growth inhibition, ACHN (kidney cancer). As to conditions: Homo sapiens, 48 hours. How it is done:
as §1, §2

Each structure is given as a SMILES string.

In general, GI50 refers to the concentration that inhibits growth by half. Low values mean greater sensitivity of the cells, high ones lower sensitivity of the cells. In the case of `CC1OC(OC2C(O[C@H](CCCCCCCCCCCCC[C@@H](C)O)CC(=O)O)OC(C)C(O)C2O)C(O)C(O)C1O` (stereo partly shown) [Compound 3, 3-(4,5-dihydroxy-6-methyl-3-(3,4,5-trihydroxy-6-methyltetrahydro-2H-pyran-)2-yloxy)tetrahydro-(2H-pyran-2-yloxy)-17-hydroxyoctadecanoic acid], the GI50 in the assay with NCI-H23 is 36.9 µM; with PC-3 it was 33.3 µM; in the assay on HCT-15 it was 26.9 µM; with NUGC-3, 32 µM; with MDA-MB-231, 25.5 µM; in the assay on Human cancer cell lines it was 13.7 to 41.5 µM. Further, the GI50 in the assay on ACHN came out at 29.1 µM.
As for `CC(=O)CCCCCCCCCCCCC[C@H](CC(=O)O)OC1OC(C)C(O)C(O)C1O` (stereo in doubt) [Compound 2, 17-oxo-3-(3,4,5-trihydroxy-6-methyltetrahydro-2H-pyran-2-yloxy)octadecanoic acid], the GI50 was 13.7 µM in the assay on NCI-H23; 18.2 µM in the assay on PC-3; 16.7 µM in the assay with HCT-15; 19.3 µM with NUGC-3; 40.4 µM with MDA-MB-231; 13.7 to 41.5 µM in the assay with Human cancer cell lines. Further, in the assay on ACHN, the GI50 was 14.1 µM. Moreover, in the assay on Human cancer cell lines (summary in words of Table 3), the “activity against cancer cell lines” value is given as “particularly excellent activity”.
`CC1OC(O[C@H](CCCCCCCCCCCCC[C@@H](C)O)CC(=O)O)C(O)C(O)C1O` (stereo in doubt) [Compound 1, 17-hydroxy-3-(3,4,5-trihydroxy-6-methyltetrahydro-2H-pyran-2-yloxy)octadecanoic acid]: the GI50 with NCI-H23 was 27.5 µM; in the assay on PC-3 it was 37.8 µM; in the assay with HCT-15 it was 41.5 µM; with NUGC-3, 30.6 µM; with MDA-MB-231, 30.6 µM; in the assay on Human cancer cell lines, 13.7 to 41.5 µM. The same compound displayed a GI50 with ACHN of 34.2 µM.
Turning to `COc1cccc2c1C(=O)c1c(O)c3c(c(O)c1C2=O)C[C@@](O)(C(=O)CO)C[C@@H]3O[C@H]1C[C@H](N)[C@H](O)[C@H](C)O1` [ADR, adriamycin, reference compound], the GI50 with NCI-H23 is 1.4 µM; with PC-3 it was 1.4 µM; in the assay on HCT-15 it was 1.4 µM; in the assay with NUGC-3, 1.5 µM; in the assay with MDA-MB-231, 1.5 µM; with ACHN, 1.3 µM.
